Read-outs that look alike come from different tables or passages of the source.
What was measured:
[1] = system: compound 48/80-induced lethality; assay: Protection of rats from compound 48/80-induced lethality; assay type: in vivo, Male rats of an inbred Wistar strain; settings: Rattus norvegicus, 4 h, read-out: compound 48/80 lethality test rats-ED50
Description: Protection of rats from compound 48/80-induced lethality
The protection from compound 48/80-induced lethal circulatory collapse appears to be a simple way of evaluating quantitatively the antihistaminic activity of test compounds. Male rats of an inbred Wistar strain, weighing 240-260 g were used in the experiment. After overnight starvation the rats were transferred to conditioned laboratories (temp.=21±1° C., relative humidity-65±5%).
The rats were treated subcutaneously or orally with a test compound or with the solvent (NaCl solution, 0.9%). […] Survival after 4 hours is therefore considered to be a safe criterion of a protective effect of drug administration.
The ED50 -values of the compounds of formula (I) and the intermediates of formula (XVIII) are listed in the first column of table 1 and table 2. Said ED50 -values are the values in mg/kg body weight at which the tested compounds protect 50% of the tested animals against compound 48/80-induced lethality.

[2] = system: serotonin; compound 48/80-induced gastric lesions; assay: Antagonistic activity on the effects of serotonin in the gastric lesion test (lesions induced by compound 48/80); assay type: in vivo, Male rats of a Wistar inbred strain
Description: Antagonistic activity on the effects of serotonin in the gastric lesion test
Male rats of a Wistar inbred strain, weighing 220-250 g, were starved overnight, water being available ad libitum. The test compounds were administered orally as a solution or as a suspension in aqueous medium. A control rat and a "blank" rat received the test compound. One hour later 5-[4-(diphenylmethyl)-1-piperazinylmethyl]-1-methyl-1H-benzimidazole-2-methanol was administered subcutaneously to all rats at the dose of 2.5 mg/kg.
Four hours after the intravenous injection of compound 48/80, the rats were decapitated and the stomachs were removed. Subsequently the stomachs were inspected for distension and contents (blood, fluid, food) and thoroughly rinsed. The macroscopic lesions were scored from 0 to +++, 0 corresponding to complete absence of visible lesions and the highest score corresponding to reddish rough patches covering more than half the glandular area.

[3] = Rattus norvegicus, po; read-out: gastric lesion test ED50
[4] = Rattus norvegicus, po, read-out: gastric lesion test ED50

With `Cc1cc(NCCN2CCC(Nc3nc4ccccc4n3Cc3ccc(F)cc3)CC2)nc(N)n1` [Compound 35] as the molecule, how does the ED50 [1] read?
The ED50 was 0.31 mg/kg.

For `OCCN1CCC(Nc2nc3cnccc3n2Cc2ccc(F)cc2)CC1` [CH2 CH2 OH 4-FC6 H4 CH2 -- 3 base], which ED50 [1] is on record?
Its ED50 is 0.31 mg/kg.

Which ED50 [1] does the source give for `Fc1ccc(Cn2c(NC3CCN(CCOc4ccc(Br)cn4)CC3)nc3ccccc32)cc1` [Compound 82, N-[1-[2-[(5-bromo-2-pyridinyl)oxy]ethyl]-4-piperidinyl]-1-[(4-fluorophenyl)methyl]-1H-benzimidazol-2-amine] here?
The ED50 was 0.16 mg/kg.

`Oc1ccc(Cn2c(NC3CCN(CCNc4ncccn4)CC3)nc3ccccc32)cc1` [Compound 73, 4-[[2-[[1-[2-(2-pyrimidinylamino)ethyl]-4-piperidinyl]amino]-1H-benzimidazol-1-yl]methyl]phenol] was tested. Which ED50 [1] did it give?
Its ED50 is 2.5 mg/kg.

And the ED50 [2, 3]?
The ED50 was 2.5 mg/kg.

For `O=C(O)/C=C/C(=O)O.O=C(O)/C=C/C(=O)O.c1cnc(NCCN2CCC(Nc3nc4ccccc4n3Cc3cscn3)CC2)nc1` [Compound 72, N-[1-[2-(2-pyrimidinylamino)ethyl]-4-piperidinyl]-1-(4-thiazolylmethyl)-1H-benzimidazol-2-amine (E)-2-butenedioate (1:2)], which ED50 [1] is on record?
The ED50 was 0.02 mg/kg.

And the ED50 [2, 4]?
The ED50 was 0.08 mg/kg.

How did the ED50 [1] turn out when `Fc1ccc(Cn2c(NC3CCN(CCNc4ccncn4)CC3)nc3ccccc32)cc1` [Compound 94, 1-[(4-fluorophenyl)methyl]-N-[1-[2-(4-pyrimidinylamino)ethyl]-4-piperidinyl]-1H-benzimidazol-2-amine hemihydrate] was run?
The ED50 was 0.08 mg/kg.

What about the ED50 [2, 3] of the same molecule?
Its ED50 is 1.25 mg/kg.

How did the ED50 [1] turn out when `c1ccc(Cn2c(NC3CCN(CCNc4ncccn4)CC3)nc3ccccc32)nc1` [Compound 15] was run?
Its ED50 is 0.04 mg/kg.

What about the ED50 [2, 3] of the same molecule?
The ED50 was 0.63 mg/kg.

`Fc1ccc(Cn2c(NC3CCN(CCNC(=S)Nc4cccnc4)CC3)nc3ccccc32)cc1` [Compound 104, N-[2-[4-[[1-[(4-fluorophenyl)methyl]-1H-benzimidazol-2-yl]amino]-1-piperidinyl]ethyl]-N'-(3-pyridinyl)thiourea] was tested. Which ED50 [1] did it give?
Its ED50 is 0.63 mg/kg.

And the ED50 [2, 3]?
Its ED50 is 0.63 mg/kg.

Which results are given for `c1cnc(NCCN2CCC(Nc3nc4ccccc4n3Cc3cnccn3)CC2)nc1` [Compound 18]?
ED50 [1]: 0.01 mg/kg; ED50 [2, 3]: 0.63 mg/kg

How did the ED50 [1] turn out when `Cc1cc(NCCN2CCC(Nc3nc4ccccc4n3Cc3ccc(F)cc3)CC2)nc(Cl)n1` [Compound 61, N-[1-[2-[(2-chloro-6-methyl-4-pyrimidinyl)amino]ethyl]-4-piperidinyl]-1-[(4-fluorophenyl)methyl]-1H-benzimidazol-2-amine] was run?
Its ED50 is 0.08 mg/kg.

And the ED50 [2, 3]?
The ED50 was 2.5 mg/kg.

For `Fc1ccc(Cn2c(NC3CCN(CCNc4ncccn4)CC3)nc3ccncc32)cc1.O=C(O)/C=C/C(=O)O.O=C(O)/C=C/C(=O)O` [Compound 29, 3-[(4-fluorophenyl)methyl]-N-[1-[2-[(2-pyrimidinyl)amino]ethyl]-4-piperidinyl]-3H-imidazo[4,5-c]pyridin-2-amine (E)-2-butenedioate (1:2)], which ED50 [1] is on record?
Its ED50 is 0.16 mg/kg.

For `Fc1ccc(Cn2c(NC3CCN(CCNc4ncccn4)CC3)nc3ncccc32)cc1` [Compound 25, 1-[(4-fluorophenyl)methyl]-N-[1-[2-[(2-pyrimidinyl)amino]ethyl]-4-piperidinyl]-1H-imidazo[4,5-b]pyridin-2-amine], which ED50 [1] is on record?
Its ED50 is 0.02 mg/kg.

And the ED50 [2, 3]?
Its ED50 is 0.16 mg/kg.

For `OCCN1CCC(Nc2nc3ncccc3n2Cc2ccc(F)cc2)CC1` [CH2 CH2 OH 4-FC6 H4 CH2 -- 4 base], which ED50 [1] is on record?
The ED50 was 0.01 mg/kg.

What about the ED50 [2, 3] of the same molecule?
Its ED50 is 0.63 mg/kg.

Which results are given for `Fc1ccc(Cn2c(NC3CCN(C4CCN(c5ccccn5)CC4)CC3)nc3ccccc32)cc1` [Compound 97, N-[1-[(4-fluorophenyl)methyl]-1H-benzimidazol-2-yl]-1'-(2-pyridinyl)-[1,4'-bipiperidin]-4-amine (E)-2-butenedioate (2:3) monohydrate]?
ED50 [1]: 0.63 mg/kg; ED50 [2, 3]: 2.5 mg/kg

How did the ED50 [1] turn out when `c1cnc(NCCN2CCC(Nc3nc4ccccc4n3Cc3ccoc3)CC2)nc1` [Compound 20] was run?
The ED50 was 0.04 mg/kg.

And the ED50 [2, 3]?
Its ED50 is 0.63 mg/kg.

What does the source list for `Cc1ccc(Cn2c(NC3CCN(CCNc4ccc(Br)cn4)CC3)nc3ccccc32)cc1` [Compound 51]?
ED50 [1]: 0.02 mg/kg; ED50 [2, 4]: 0.08 mg/kg

Which ED50 [1] does the source give for `c1ccc(Cn2c(NC3CCN(CCNc4ncccn4)CC3)nc3cccnc32)nc1` [Compound 27, 3-(2-pyridinylmethyl)-N-[1-[2-(2-pyrimidinylamino)ethyl]-4-piperidinyl]3H-imidazo[4,5-b]pyridin-2-amine (E)-2-butenedioate (2:3)] here?
Its ED50 is 0.04 mg/kg.

What about the ED50 [2, 3] of the same molecule?
The ED50 was 2.5 mg/kg.

What does the source list for `Nc1cccnc1NC(=S)NCCN1CCC(Nc2nc3ccccc3n2Cc2ccc(F)cc2)CC1` [Compound 107, N-(3-amino-2-pyridinyl)-N'-[2-[4-[[1-[(4-fluorophenyl)methyl]-1H-benzimidazol-2-yl]amino]-1-piperidinyl]ethyl]thiourea]?
ED50 [1]: 0.16 mg/kg; ED50 [2, 3]: 0.31 mg/kg

With `Nc1nc(NCCN2CCC(Nc3nc4ccccc4n3Cc3ccc(F)cc3)CC2)ccc1[N+](=O)[O-]` [Compound 63, N^6-[2-[4-[[1-[(4-fluorophenyl)methyl]1H-benzimidazol-2-yl]amino]-1-piperidinyl]ethyl]-3-nitro-2,6-pyridinediamine] as the molecule, how does the ED50 [1] read?
Its ED50 is 0.31 mg/kg.

What about the ED50 [2, 3] of the same molecule?
The ED50 was 2.5 mg/kg.

`c1cnc(NCCN2CCC(Nc3nc4ccccc4n3Cc3cccnc3)CC2)nc1` [Compound 17] was tested. Which ED50 [1] did it give?
Its ED50 is 1.25 mg/kg.

`O=c1nc(NCCN2CCC(Nc3nc4ccccc4n3Cc3ccc(F)cc3)CC2)[nH]c2ccccc12` [Compound 88, 2-[[2-[4-[[1-[(4-fluorophenyl)methyl]-1H-benzimidazol-2-yl]amino]1-piperidinyl]ethyl]amino]-4(1H)-quinazolinone] was tested. Which ED50 [1] did it give?
The ED50 was 0.63 mg/kg.

What about the ED50 [2, 3] of the same molecule?
The ED50 was 2.5 mg/kg.

For `O=C(NCCN1CCC(Nc2nc3ccccc3n2Cc2ccc(F)cc2)CC1)c1cccnc1Cl` [Compound 115, 2-chloro-N-[2-[4-[[1-[(4-fluorophenyl)methyl]-1H-benzimidazol-2-yl]amino]-1-piperidinyl]ethyl]-3-pyridinecarboxamide (E)-2-butenedioate (1:2) hemihydrate], which ED50 [1] is on record?
The ED50 was 0.16 mg/kg.

`N#CCN1CCC(Nc2nc3cnccc3n2Cc2ccc(F)cc2)CC1` [Intermediate 81] was tested. Which ED50 [1] did it give?
The ED50 was 0.63 mg/kg.

With `Fc1ccc(Cn2c(NC3CCN(CCc4cnccn4)CC3)nc3ccccc32)cc1` [Compound 101, 1-(4-fluorophenylmethyl)-N-[1-[2-(2-pyrazinyl)ethyl]-4-piperidinyl]-1H-benzimidazol-2-amine] as the molecule, how does the ED50 [1] read?
The ED50 was 0.31 mg/kg.

How did the ED50 [1] turn out when `Fc1ccc(Cn2c(NC3CCN(CCNc4ncccn4)CC3)nc3cnccc32)cc1` [Compound 26, 1[(4-fluorophenyl)methyl]-N-[1-[2-(2-pyrimidinylamino]ethyl]-4-piperidinyl]1H-imidazo[4,5-c]pyridin-2-amine] was run?
The ED50 was 0.08 mg/kg.

With `Brc1ccc(OCCN2CCC(Nc3nc4ccccc4n3Cc3ccco3)CC2)nc1` [Compound 78, N-[1-[2-[(5-bromo-2-pyridinyl)oxy]ethyl]-4-piperidinyl]-1-(2-furanylmethyl)-1H-benzimidazol-2-amine] as the molecule, how does the ED50 [1] read?
The ED50 was 0.31 mg/kg.

With `Cc1nc2ccccc2nc1NCCN1CCC(Nc2nc3ccccc3n2Cc2ccc(F)cc2)CC1` [Compound 41] as the molecule, how does the ED50 [1] read?
The ED50 was 1.25 mg/kg.

With `Fc1ccc(Cn2c(NC3CCN(C4CCN(c5ncccn5)CC4)CC3)nc3ccccc32)cc1` [Compound 6] as the molecule, how does the ED50 [1] read?
Its ED50 is 1.25 mg/kg.

How did the ED50 [1] turn out when `O=[N+]([O-])c1cccnc1N1CCC(N2CCC(Nc3nc4ccccc4n3Cc3ccc(F)cc3)CC2)CC1` [Compound 11] was run?
Its ED50 is 0.63 mg/kg.

Which ED50 [1] does the source give for `Fc1ccc(Cn2c(NC3CCN(CCNc4ccc5ccccc5n4)CC3)nc3ccccc32)cc1` [Compound 44] here?
Its ED50 is 0.31 mg/kg.

With `Fc1ccc(Cn2c(NC3CCN(CCCNc4ncccn4)CC3)nc3ccccc32)cc1` [Compound 4] as the molecule, how does the ED50 [1] read?
Its ED50 is 0.16 mg/kg.

How did the ED50 [1] turn out when `Fc1ccc(Cn2c(NC3CCN(CCNc4cc(Cl)ncn4)CC3)nc3ccccc32)cc1` [Compound 5] was run?
The ED50 was 0.31 mg/kg.

`NCCN1CCC(Nc2nc3cnccc3n2Cc2ccc(F)cc2)CC1` [Intermediate 111] was tested. Which ED50 [1] did it give?
The ED50 was 0.16 mg/kg.

Which ED50 [1] does the source give for `COc1cc(NCCN2CCC(Nc3nc4ccccc4n3Cc3ccc(F)cc3)CC2)ncn1` [Compound 98, 1-[(4-fluorophenyl)methyl]-N-[1-[2-[(6-methoxy-4-pyrimidinyl)amino]ethyl]-4-piperidinyl]-1H-benzimidazol-2-amine] here?
Its ED50 is 0.16 mg/kg.

For `O=c1cc(Cc2ccccc2)[nH]c(NCCN2CCC(Nc3nc4ccccc4n3Cc3ccc(F)cc3)CC2)n1` [Compound 89, 2-[[2-[4-[[1-[(4-fluorophenyl)methyl]-1H-benzimidazol-2-yl]amino]-1-piperidinyl]ethyl]amino]-6-(phenylmethyl)-4-(1H)-pyrimidinone], which ED50 [1] is on record?
Its ED50 is 0.63 mg/kg.

`Cc1nc2ccccc2nc1OCCN1CCC(Nc2nc3ccccc3n2Cc2ccc(F)cc2)CC1` [Compound 80, 1-[(4-fluorophenyl)methyl]-N-[1-[2-[(3-methyl-2-quinoxalinyl)oxy]ethyl]-4-piperidinyl]-1H-benzimidazol-2-amine] was tested. Which ED50 [1] did it give?
Its ED50 is 2.5 mg/kg.

With `Cc1cc(Cl)nc(NCCN2CCC(Nc3nc4ccccc4n3Cc3ccc(F)cc3)CC2)n1` [Compound 62, N-[1-[2-[(4-chloro-6-methyl-2-pyrimidinyl)amino]ethyl]-4-piperidinyl]-1-[(4-fluorophenyl)methyl]-1H-benzimidazol-2-amine] as the molecule, how does the ED50 [1] read?
Its ED50 is 0.63 mg/kg.

Reference: patent publication US4556660A, “N-(Bicyclic heterocyclyl)-4-piperidinamines” (Janssen Pharmaceutica N.V., priority 1983, dated 1985)
